Values of other authors as cited in patent publication US20150045432A1, “DIETARY SUPPLEMENT COMPRISING AMINO ACIDS IN A PALATABLE LIQUID FORMULATION THAT PROMOTES RESTFUL SLEEP, RECOVERY FROM STRESS AND EXERCISE AND STRENGTHENS THE IMMUNE SYSTEM” (North Health Essentials, LLC, priority 2013, published 2015).

Key:
[1] = 3 grams of glycine, bolus before bedtime
[2] = taken within an hour before going to bed, versus those who did not take the amino acid
[3] = rats
[4] = after 60 minutes of administration, compared to water or L-threonine

Row | distribution in the brain [3] | Structure (SMILES) | alpha waves [4] | beta waves [4] | immunity under stress conditions (in vivo) | time after administration within which relaxant effects could be seen (induce relaxation and diminish anxiety) | daytime sleepiness [1] | sleep quality and efficacy [1] | brainwave patterns of non-REM sleep and sleep length [2]
1 |  | NCCCC(=O)O [GABA, gamma-aminobutyric acid] | significantly increases alpha waves | decreases beta waves | could enhance immunity | ≤ 1 h |  |  | 
2 | accumulates in the pineal gland | NCC(=O)O [glycine] |  |  |  |  | lessened daytime sleepiness | improved sleep quality and efficacy | showed brainwave patterns associated with non-REM sleep sooner and slept longer
